Laboratory results reported in patent US20260258039A1, “AROMATIC COMPOUND, METHOD FOR PREPARING SAME, AND USE THEREOF IN PREPARATION OF ESTROGEN RECEPTOR DEGRADER” (Hinova Pharmaceuticals Inc., priority 2022, published 2026).
Like-named read-outs stand apart in the source and are kept apart here.

Assays:
[1] = test system: MCF-7 breast cancer cells; test: Inhibition of proliferation of MCF-7 breast cancer cells (agarose culture, CellTiter-Glo 3D); assay type: cell-based; settings: MCF-7 cells, 15 days of cultivation, read-out: IC50
Description: After 1.6% agarose and 0.7% agarose were sterilized at high temperature, they were cooled to around 50° C., and placed in a 42° C. water bath for later use. MCF-7 breast cancer cells were subcultured in complete cell culture medium, and cells in good growth condition were digested and counted for future use. 50 µL of 1.6% agarose mixed with 2× culture medium at a ratio of 1:1 was spread into the bottom of 96-well plate, and allowed to cool and solidify. 0.7% agarose was mixed with diluted cell suspension in a ratio of 1:1, and then 50 µL of the mixture of gel and cells was added to each well, with 2000 cells for each well; the mixture was allowed to cool and solidify at room temperature. 50 μL of culture medium was added to the plate containing cells, and the plate was placed in a 37° C., 5% CO2 incubator and cultured for 24 h. The drug was prepared into 10 mM stock solution with dimethyl sulfoxide (DMSO). The stock solution was diluted in a ratio of 1:3, to obtain 9 concentration gradients. Then, each concentration of compound solution was further diluted with culture medium in 1:250 (to ensure a DMSO concentration of 0.1% in the culture system). Two replicate wells was set for each concentration. 50 μL of the diluted compound solution was added to the cell culture wells (with final concentrations of 10 μM, 3.3 μM, 1.1 μM, 0.37 μM . . . ). The plate was gently shaken for mixing. Additionally, 3 negative control wells only containing cells and 3 blank control wells only containing culture medium were set up (each of the 6 wells was added with 50 μL of DMSO diluted with culture medium in a ration of 1:250). After 15 days of cultivation, the cell plates and CellTiter-Glo 3D Cell Viability were taken out and equilibrated to room temperature in advance. 80 μL of culture medium were aspirated and discarded from the cell plate, and 120 µL of CellTiter-Glo 3D Cell Viability solution was added to each well. The plates were centrifuged at 1200 rpm/min for 5 min, and then placed in the dark and kept for 25 min. The […] were measured using a multi-function microplate reader. The data were analyzed using the Dose-response-inhibition equation in GraphPad Prism8 software, and the IC50 values were obtained, as shown in Table 3.

ER = biological target: T1, ER (Homo sapiens, UniProt P03372); test: Degradation activities on ER (ELISA) in T47D breast cancer cells; assay type: cell-based; settings: T47D cells, 24 h, ELISA; for DC50: concentration required to degrade 50% of the target protein; for Dmax: maximum percentage of target protein degraded
T1 construct: T47D breast cancer cells were subcultured in cell culture medium; endogenous in cells; host or cells: T47D breast cancer cells
T1 sequence (P03372 1-595): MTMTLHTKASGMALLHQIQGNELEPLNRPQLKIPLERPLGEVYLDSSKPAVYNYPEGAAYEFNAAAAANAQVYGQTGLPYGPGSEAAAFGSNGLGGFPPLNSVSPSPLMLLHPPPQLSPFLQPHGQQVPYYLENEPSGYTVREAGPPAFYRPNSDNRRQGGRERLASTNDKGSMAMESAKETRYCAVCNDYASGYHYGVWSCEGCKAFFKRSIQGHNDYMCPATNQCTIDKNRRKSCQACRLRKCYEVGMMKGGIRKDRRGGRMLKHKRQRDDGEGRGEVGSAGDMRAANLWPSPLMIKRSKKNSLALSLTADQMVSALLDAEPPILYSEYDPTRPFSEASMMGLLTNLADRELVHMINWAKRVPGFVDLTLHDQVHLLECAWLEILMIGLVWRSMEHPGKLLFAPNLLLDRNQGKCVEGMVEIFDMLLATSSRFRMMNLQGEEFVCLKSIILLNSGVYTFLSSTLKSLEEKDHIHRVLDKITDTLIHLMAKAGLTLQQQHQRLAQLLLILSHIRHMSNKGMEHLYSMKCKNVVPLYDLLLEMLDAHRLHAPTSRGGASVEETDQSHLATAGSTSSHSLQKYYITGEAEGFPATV
Method in brief: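 T47D cells were seeded at 2.5×10^4/well, grown 3 days at 37 °C, 5% CO2, then exposed 24 h to compound at 100, 25, 6.25, 1.56, 0.39 and […] nM (final). ER protein was quantified by sandwich ELISA with HRP/TMB read at 450 nm, and DC50 and Dmax came from dose-response fits.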

Compound | DC50 (ER) [nM] | IC50 ([1]; Homo sapiens, MCF7, 360 h) [nM] | Dmax (ER; read-out: Dmax) [%] | IC50 [1] [nM] | Dmax (ER)
O=C1CCC(N2Cc3cc(N4CC5(CCN(CC6CCN(c7ccc([C@H]8c9ccc(O)cc9OC[C@H]8c8ccccc8F)cc7F)CC6)CC5)C4)ccc3C2=O)C(=O)N1 (relative stereo) [Example 87, 3-(5-(7-((1-(2-fluoro-4-(cis-3-(2-fluorophenyl)-7-hydroxybenzopyran-4-yl)phenyl)piperidin-4-yl)methyl)-2,7-diazaspiro[3.5]nonane-2-yl)-1-oxoisoinodolin-2-yl)piperidin-2,6-dione] | < 10 | – | – | < 10 | B (B: 75-50%)
O=C1CCC(NC(=O)c2ccc(N3CC4(CCN(CC5CCN(c6ccc([C@@H]7c8ccc(O)cc8OC[C@@H]7c7ccccc7F)cc6)CC5)CC4)C3)cc2F)C(=O)N1 (relative stereo) [Example 103, N-(2,6-dioxopiperidin-3-yl)-2-fluoro-4-(7-((1-(4-(cis-3-(2-fluorophenyl)-7-hydroxychroman-4-yl)phenyl)piperidin-4-yl)methyl)-2,7-diazaspiro[3.5]nonane-2-yl)benzamide] | – | > 50 | – | – | –
O=C1CCC(N2Cc3cc(N4CC5(CCN(CC6CCN(c7ccc([C@@H]8c9ccc(O)cc9OC[C@@H]8c8cccc(F)c8F)cc7F)CC6)CC5)C4)ccc3C2=O)C(=O)N1 (stereo partly drawn) [Example 16, 3-(5-(7-((1-(4-((3S, 4R)-3-(2,3-difluorophenyl)-7-hydroxychroman-4-yl)-2-fluorophenyl)piperidin-4-yl)methyl)-2,7-diazaspiro[3.5]nonane-2-yl)-1-oxoisoinodolin-2-yl)piperidin-2,6-dione] | < 10 | < 10 | 50 to 75 | – | –
CC(C)C[C@H]1COc2cc(O)ccc2[C@H]1c1cc(F)c(N2CCC(CN3CCC4(CC3)CN(c3ccc5c(c3)CN(C3CCC(=O)NC3=O)C5=O)C4)CC2)c(F)c1 (stereo partly drawn) [Example 17, 3-(5-(7-((1-(2,6-difluoro-4-(cis-7-hydroxyl-3-isobutylchroman-4-yl)phenyl)piperidin-4-yl)methyl)-2,7-diazaspiro[3.5]nonane-2-yl)-1-oxoisoinodolin-2-yl)piperidin-2,6-dione] | < 10 | 11 to 50 | 50 to 75 | – | –
O=C1CCC(N2Cc3cc(N4CC5(CCN(CC6CCN(c7ccc(C8=C(c9c(F)cccc9F)COc9cc(O)ccc98)cc7)CC6)CC5)C4)ccc3C2=O)C(=O)N1 (stereo not drawn) [Example 18, 3-(5-(7-((1-(4-(3-(2,6-difluorophenyl)-7-hydroxyl-2H-chromene-4-yl)phenyl)piperidin-4-yl)methyl)-2,7-diazaspiro[3.5]nonane-2-yl)-1-oxoisoinodolin-2-yl)piperidin-2,6-dione] | < 10 | – | – | < 10 | A (A: >75%)
O=C1CCC(N2Cc3cc(N4CCC(N5CC6(CCN(c7ccc([C@@H]8c9ccc(O)cc9CC[C@@H]8c8ccccc8F)cc7)CC6)C5)CC4)ccc3C2=O)C(=O)N1 (stereo partly drawn) [Example 22, 3-(5-(4-(7-(4-((1R,2S)-2-(2-fluorophenyl)-6-hydroxyl-1,2,3,4-tetrahydronaphthalen-1-yl)phenyl)-2,7-diazaspiro[3.5]nonane-2-yl)piperidin-1-yl)-1-oxoisoinodolin-2-yl)piperidin-2,6-dione] | < 10 | < 10 | – | – | –
O=C1CCC(N2Cc3cc(N4CC5(CCN(CC6CCN(c7c(F)cc(C8=C(c9c(F)cccc9F)COc9cc(O)ccc98)cc7F)CC6)CC5)C4)ccc3C2=O)C(=O)N1 (stereo not drawn) [Example 42] | < 10 | 11 to 50 | 50 to 75 | – | –
O=C1CC[C@H](N2Cc3cc(N4CC5(CCN(CC6CCN(c7c(F)cc([C@@H]8c9ccc(O)cc9OC[C@@H]8c8c(F)cccc8F)cc7F)CC6)CC5)C4)ccc3C2=O)C(=O)N1 [Example 45] | < 10 | < 10 | > 75 | – | –
[2H]C1(N2Cc3cc(N4CC5(CCN(CC6CCN(c7ccc([C@@H]8c9ccc(O)cc9OC[C@@H]8c8c(F)cccc8F)cc7F)CC6)CC5)C4)ccc3C2=O)CCC(=O)NC1=O (stereo partly drawn) [Example 93, 3-deutero-3-(5-(7-((1-(4-((3S,4R)-3-(2,6-difluorophenyl)-7-hydroxychroman-4-yl)-2-fluorophenyl)piperidin-4-yl)methyl)-2,7-diazaspiro[3.5]nonane-2-yl)-1-oxoisoinodolin-2-yl)piperidin-2,6-dione] | – | 11 to 50 | – | – | –
O=C1CCC(N2Cc3cc(N4CC5(CCN(CC6CCN(c7ccc([C@@H]8c9ccc(B(O)O)cc9OC[C@@H]8c8ccccc8F)cc7)CC6)CC5)C4)ccc3C2=O)C(=O)N1 (stereo partly drawn) [Example 101, (cis-4-(4-(4-((2-(2-(2,6-dioxopiperidin-3-yl)-1-oxoisoinodolin-5-yl)-2,7-diazaspiro[3.5]nonan-7-yl)methyl)piperidin-1-yl)phenyl)-3-(2-fluorophenyl)pyran-7-yl)boric acid] | – | 11 to 50 | – | – | –
O=C1CCC(N2Cc3cc(N4CC5(CCN(CC6CCN(c7ccc([C@@H]8c9ccc(C(=O)O)cc9OC[C@@H]8c8ccccc8F)cc7)CC6)CC5)C4)ccc3C2=O)C(=O)N1 (stereo partly drawn) [Example 102, cis-4-(4-(4-((2-(2-(2,6-dioxopiperidin-3-yl)-1-oxoisoinodolin-5-yl)-2,7-diazaspiro[3.5]nonan-7-yl)methyl)piperidin-1-yl)phenyl)-3-(2-fluorophenyl)chroman-7-formic acid] | – | > 50 | – | – | –

Further lines, with some results ahead:

DC50 (ER) [nM] | IC50 ([1]; Homo sapiens, MCF7, 360 h) [nM] | Dmax (ER; read-out: Dmax) [%] | Compound | IC50 [1] [nM] | Dmax (ER)
< 10 | 11 to 50 | 50 to 75 | O=C1CCC(N2Cc3cc(N4CC5(CCN(CC6CCN(c7ccc([C@@H]8c9ccc(O)cc9OC[C@@H]8c8ccc(F)cc8)cc7)CC6)CC5)C4)ccc3C2=O)C(=O)N1 (stereo partly drawn) [Example 9, 3-(5-(7-((1-(4-(cis-3-(4-fluorophenyl)-7-hydroxyltryptophane-4-yl)phenyl)piperidin-4-yl)methyl)-2,7-diazaspiro[3.5]nonane-2-yl)-1-oxoisoinodolin-2-yl)piperidin-2,6-dione] | – | –
< 10 | < 10 | > 75 | O=C1CCC(N2Cc3cc(N4CCC(N5CC6(CCN(c7ccc([C@@H]8c9ccc(O)cc9OC[C@@H]8c8ccccc8F)cc7)CC6)C5)CC4)ccc3C2=O)C(=O)N1 (stereo partly drawn) [Example 14, 3-(5-(4-(7-(4-((3S, 4R)-3-(2-fluorophenyl)-7-hydroxychroman-4-yl)phenyl)-2,7-diazaspiro[3.5]nonane-2-yl)piperidin-1-yl)-1-oxoisoinodolin-2-yl)pyridine-2,6-dione] | – | –
< 10 | < 10 | – | O=C1CCC(N2Cc3cc(N4CC5(CCN(CC6CCN(c7c(F)cc([C@@H]8c9ccc(O)cc9OC[C@@H]8c8c(F)cccc8F)cc7F)CC6)CC5)C4)ccc3C2=O)C(=O)N1 (stereo partly drawn) [Example 40] | – | –
> 100 | > 50 | < 50 | O=C1CC[C@@H](N2Cc3cc(N4CC5(CCN(CC6CCN(c7c(F)cc([C@@H]8c9ccc(O)cc9OC[C@@H]8c8c(F)cccc8F)cc7F)CC6)CC5)C4)ccc3C2=O)C(=O)N1 [Example 44] | – | –
– | < 10 | – | O=C1CC[C@H](N2Cc3cc(N4CC5(CCN(CC6CCN(c7ccc([C@@H]8c9ccc(O)cc9OC[C@@H]8c8c(F)cccc8F)cc7)CC6)CC5)C4)ccc3C2=O)C(=O)N1 [Example 78, (S)-3-(6-(7-((1-(4-((3S,4R)-3-(2,6-difluorophenyl)-7-hydroxychroman-4-yl)phenyl)piperidin-4-yl)methyl)-2,7-diazaspiro[3.5]nonane-2-yl)-1-oxoisoinodolin-2-yl)piperidin-2,6-dione] | – | –
